Measurements as given in ChEMBL document CHEMBL1132211, “The role of waters in docking strategies with incremental flexibility for carbohydrate derivatives: heat-labile enterotoxin, a multivalent test case” (J Med Chem, 1999).

Assay: Inhibitory concentration against Escherichia coli heat-labile enterotoxin (LT) binding to ganglioside GD1b was determined by ELISA assay

Compound | IC50 [µM]
LACTOSE, ANHYDROUS | 45
OC[C@H]1O[C@@H](S[C@@H]2O[C@H](CO)[C@H](O)[C@H](O)[C@H]2O)[C@H](O)[C@@H](O)[C@H]1O [THIODIGALACTOSIDE] | 4
O=C[C@H](O)[C@@H](O)[C@@H](O)[C@H](O)CO [GALACTOSE] | 57
O=C(O)[C@H](O)[C@@H](O)[C@H](O)[C@H](O)CO[C@@H]1O[C@H](CO)[C@H](O)[C@H](O)[C@H]1O | 7
OC[C@H]1O[C@@H](O[C@@H]2[C@@H](CO)O[C@](O)(CO)[C@H]2O)[C@H](O)[C@@H](O)[C@H]1O [LACTULOSE] | 15
O=[N+]([O-])c1cccc(O[C@@H]2O[C@H](CO)[C@H](O)[C@H](O)[C@H]2O)c1 | 0.6
